Series [1] can be described thus: physchem. The note with it: octanol/water.
Description: Lipophilicity, log D of the compound
Series [2] is described as follows: in vivo. The note with it: dog, iv, 2 mg/kg.
Description: Volume of distribution at steady state in dog at 2 mg/kg, iv and 13 mg/kg, po
A short description of series [3]: in vivo. The note with it: dog, po, 13 mg/kg.
Description: Cmax in dog at 13 mg/kg, po
Series [4] in a line: in vitro. To be noted: dog, MDCK.
Description: Apparent permeability across apical to basolateral side in dog MDCK cells at 10 uM
A short description of series [5]: in vitro. To be noted: dog, plasma.
Description: Fraction unbound in dog plasma
A short description of series [6]: in vivo. To be noted: rat, po, 5 mg/kg.
Description: Half life in rat at 5 mg/kg, po
The nature of series [7]: in vivo. To be noted: rat, iv, 2 mg/kg.
Description: Half life in rat at 2 mg/kg, iv
Series [8] is described as follows: in vivo. To be noted: dog, iv, 2 mg/kg. This is another data set of the same source.
The nature of series [9]: in vivo. The note with it: rat, plasma, iv, 2 mg/kg.
A short description of series [10]: in vivo. To be noted: rat, po, 5 mg/kg. The source holds these as a separate data set.
Description: Oral bioavailability in rat at 5 mg/kg
Series [11] can be described thus: in vivo. To be noted: mouse, iv, 2 mg/kg.
Description: Volume of distribution at steady state in mouse at 2 mg/kg, iv and 5 mg/kg, po
The nature of series [12]: in vivo. To be noted: rat, po, 5 mg/kg. This is another data set of the same source.
Description: Cmax in rat at 5 mg/kg, po
The nature of series [13]: in vivo. The note with it: mouse, plasma, iv, 2 mg/kg.
Series [14] can be described thus: in vivo. To be noted: rat, iv, 2 mg/kg. The source holds these as a separate data set.
Description: Volume of distribution at steady state in rat at 2 mg/kg, iv and 5 mg/kg, po
The nature of series [15]: in vivo. The note with it: mouse, po, 5 mg/kg.
Description: Half life in mouse at 5 mg/kg, po
Series [16] is described as follows: in vivo. The note with it: mouse, po, 5 mg/kg. The source holds these as a separate data set.
Description: Oral bioavailability in mouse at 5 mg/kg
A short description of series [17]: in vivo. To be noted: mouse, po, 5 mg/kg. This is another data set of the same source.
Description: Cmax in mouse at 5 mg/kg, po
Series [18] is described as follows: in vitro. To be noted: human, plasma.
Description: Fraction unbound in human plasma
Series [19] in a line: in vivo. The note with it: mouse, iv, 2 mg/kg. The source holds these as a separate data set.
Description: Half life in mouse at 2 mg/kg, iv
Series [20] in a line: in vitro. The note with it: mouse, plasma.
Description: Fraction unbound in mouse plasma
The nature of series [21]: in vivo. The note with it: dog, po, 13 mg/kg. This is another data set of the same source.
Description: Oral bioavailability in dog at 13 mg/kg
Series [22] can be described thus: in vivo. The note with it: dog, iv, 2 mg/kg. The source holds these as a separate data set.
Description: Half life in dog at 2 mg/kg, iv
Series [23] in a line: physchem.
Description: Solubility of the compound
Series [24] in a line: in vitro. The note with it: human, Caco-2.
Series [25] can be described thus: in vitro. The note with it: rat, plasma.
Description: Fraction unbound in rat plasma
A short description of series [26]: in vivo. The note with it: dog, po, 13 mg/kg. This is another data set of the same source.
Description: Half life in dog at 13 mg/kg, po

SMILES strings stand for the structures. Converted amounts (≈) assume the structure as drawn.

A word on the logD: it is the decadic logarithm of the distribution of all forms, ionised or not, between an organic phase and buffer at a given pH. Lower therefore signals a more hydrophilic compound. Consider `CN(C(=O)Cc1ccc(-n2cnnn2)cc1)[C@H]1CCN(Cc2ccc(C(F)(F)F)cc2)C[C@H]1F`, for which the logD in “physchem [1]” is 3.3.

As for `CO[C@H]1CN(Cc2ccc(C(F)(F)F)cc2)CC[C@H]1N(C)C(=O)Cc1ccc(-n2cnnn2)cc1`, the log distribution coefficient (logD) in the series “physchem [1]” was 3.

`CO[C@@H]1CN(Cc2ccc(C(F)(F)F)cc2)CC[C@@H]1N(C)C(=O)Cc1ccc(-n2cnnn2)cc1` registered a logD in the series “physchem [1]” of 3.1.

Regarding `Cc1nc(-c2ccc(CN3CCC(N(C)C(=O)Cc4ccc(-n5cnnn5)cc4)CC3)cc2)no1`, the logD in “physchem [1]” was determined as 2.1.

For the compound `CN(C(=O)Cc1ccc(-n2cnnn2)cc1)[C@@H]1CCN(Cc2ccc(C(F)(F)F)cc2)C[C@@H]1F`, the logD in the series “physchem [1]” came to 3.3.

In general, Vd refers to the apparent volume that relates the amount in the body to the concentration in plasma or blood. A higher Vd goes with wide distribution into tissue. By Cmax is commonly meant the highest concentration seen after dosing. As a reminder, the Papp A→B is how fast a substance crosses the layer from the apical side. A higher Papp A→B goes with ready permeation. The term fraction unbound denotes the share of the substance not bound to proteins or other matrix. Low readings indicate extensive binding, high ones weak binding. Usually half-life stands for how long it takes for the measured level to halve. One may read the clearance as a measure of how efficiently the substance is removed, as volume per time. As a reminder, the bioavailability is the share of a dose that reaches the circulation, judged against a reference dose that is usually intravenous. A lower bioavailability goes with little systemic uptake. By solubility is commonly meant the concentration that dissolves in the medium under given conditions. Higher therefore signals a readily soluble substance. In the case of `CN(C(=O)Cc1ccc(-n2cnnn2)cc1)C1CCN(Cc2ccc(C(F)(F)F)cc2)CC1`, the distribution volume (Vd) in “in vivo [2]” amounted to 2.3 L/kg; in “in vivo [11]” it was 2 L/kg; in the series “in vivo [14]” it was 1.4 L/kg. Further, the Cmax in “in vivo [3]” stood at 6400 nM; in “in vivo [12]”, 2400 nM; in the series “in vivo [17]”, 2200 nM. Also, the Papp A→B at 10 µM was found to be 17 ×10⁻⁶ cm/s in the series “in vitro [4]” and 57 ×10⁻⁶ cm/s in “in vitro [24]”. Also, the fraction unbound in “in vitro [5]” was determined as 0.068; in “in vitro [18]”, 0.076; in “in vitro [20]”, 0.099; in the series “in vitro [25]”, 0.081. The half-life in the series “in vivo [6]” is 2.8 h; in the series “in vivo [7]”, 2.8 h; in the series “in vivo [15]”, 2.4 h; in the series “in vivo [19]”, 2.2 h; in “in vivo [22]”, 20 h; in the series “in vivo [26]”, 18 h. The clearance in “in vivo [8]” worked out at 1.3 mL/min/kg; in the series “in vivo [9]”, 6.8 mL/min/kg; in the series “in vivo [13]” it was 12 mL/min/kg. For the same compound, the figures for the bioavailability in “in vivo [10]”, in the series “in vivo [16]” and in the series “in vivo [21]” were 66%, 64% and 35%, respectively. In “physchem [1]”, this compound returned a log distribution coefficient (logD) of 3. This compound displayed a solubility in “physchem [23]” of 18 µM (≈ 8.25 µg/mL).

Values taken from ChEMBL document CHEMBL2010696, “Discovery, optimisation and in vivo evaluation of novel GPR119 agonists” (Bioorg Med Chem Lett, 2011).
